In article PMC7044277 (Nature Communications, 2020):
Several values for one entry are separate records, joined by “and”; a condition that tells them apart may be missing. Identical values can stand only once.

Tests used:
Format in all cases: cell-based
320 non-olfactory GPCRs [1] = molecular target: T1, 320 non-olfactory GPCRs (Homo sapiens, UniProt P08588)
T1 construct: expressed in transfected cells; host or cells: HTLA cells

320 non-olfactory GPCRs [2] = molecular target: T2, 320 non-olfactory GPCRs (Homo sapiens, UniProt Q9UBS5)
T2 construct: expressed in transfected cells; host or cells: HTLA cells

320 non-olfactory GPCRs [3] = molecular target: T3, 320 non-olfactory GPCRs (Homo sapiens, UniProt P46091)
T3 construct: expressed in transfected cells; host or cells: HTLA cells

320 non-olfactory GPCRs [4] = molecular target: T4, 320 non-olfactory GPCRs (Homo sapiens, UniProt O00398); conditions: receptor P2RY10; replicate values, Fig_4g
T4 construct: expressed in transfected cells; host or cells: HTLA cells
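Wherever Fold of Basal is given: compound tested at 1 µM final concentration.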
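Wherever GPCRome agonism screen response is given: fold over basal response of each receptor without drug.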

T2 sequence (Q9UBS5 20-961): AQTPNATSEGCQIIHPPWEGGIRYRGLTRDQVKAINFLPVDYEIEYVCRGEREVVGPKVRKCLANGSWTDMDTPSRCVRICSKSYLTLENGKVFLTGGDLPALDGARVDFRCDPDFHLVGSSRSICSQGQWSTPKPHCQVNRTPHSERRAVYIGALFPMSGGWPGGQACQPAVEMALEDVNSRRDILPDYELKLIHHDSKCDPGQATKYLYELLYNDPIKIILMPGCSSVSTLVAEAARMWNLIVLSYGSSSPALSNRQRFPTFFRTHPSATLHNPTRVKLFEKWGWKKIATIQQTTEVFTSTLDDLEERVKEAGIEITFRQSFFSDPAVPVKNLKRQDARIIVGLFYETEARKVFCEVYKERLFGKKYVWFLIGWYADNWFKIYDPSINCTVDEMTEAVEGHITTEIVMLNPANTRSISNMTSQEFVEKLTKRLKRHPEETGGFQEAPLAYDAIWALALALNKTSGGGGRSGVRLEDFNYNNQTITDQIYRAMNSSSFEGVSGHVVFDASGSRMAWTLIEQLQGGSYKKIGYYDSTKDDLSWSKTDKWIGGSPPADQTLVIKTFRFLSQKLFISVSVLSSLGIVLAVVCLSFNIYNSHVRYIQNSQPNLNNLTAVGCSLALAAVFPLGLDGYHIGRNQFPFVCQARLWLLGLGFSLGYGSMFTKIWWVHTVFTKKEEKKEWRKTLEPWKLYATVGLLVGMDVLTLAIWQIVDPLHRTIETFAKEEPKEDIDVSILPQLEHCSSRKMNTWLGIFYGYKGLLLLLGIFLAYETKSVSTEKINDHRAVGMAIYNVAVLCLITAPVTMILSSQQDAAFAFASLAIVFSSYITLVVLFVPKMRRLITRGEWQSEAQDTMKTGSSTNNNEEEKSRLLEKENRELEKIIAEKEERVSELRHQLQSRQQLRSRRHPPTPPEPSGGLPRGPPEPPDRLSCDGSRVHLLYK
T1 sequence (P08588 whole entry): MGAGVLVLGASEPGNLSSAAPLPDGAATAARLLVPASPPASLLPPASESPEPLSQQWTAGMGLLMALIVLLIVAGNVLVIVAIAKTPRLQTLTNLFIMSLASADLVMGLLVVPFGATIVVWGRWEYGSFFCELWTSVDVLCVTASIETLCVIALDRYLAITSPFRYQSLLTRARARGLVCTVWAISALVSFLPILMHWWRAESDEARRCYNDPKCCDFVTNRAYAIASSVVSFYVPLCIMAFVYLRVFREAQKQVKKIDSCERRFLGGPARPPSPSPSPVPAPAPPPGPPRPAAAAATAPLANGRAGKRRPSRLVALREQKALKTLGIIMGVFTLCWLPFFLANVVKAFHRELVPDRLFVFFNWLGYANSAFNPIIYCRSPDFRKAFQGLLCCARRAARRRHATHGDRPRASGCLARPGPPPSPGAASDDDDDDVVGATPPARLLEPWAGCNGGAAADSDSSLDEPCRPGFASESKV
T3 sequence (P46091 whole entry): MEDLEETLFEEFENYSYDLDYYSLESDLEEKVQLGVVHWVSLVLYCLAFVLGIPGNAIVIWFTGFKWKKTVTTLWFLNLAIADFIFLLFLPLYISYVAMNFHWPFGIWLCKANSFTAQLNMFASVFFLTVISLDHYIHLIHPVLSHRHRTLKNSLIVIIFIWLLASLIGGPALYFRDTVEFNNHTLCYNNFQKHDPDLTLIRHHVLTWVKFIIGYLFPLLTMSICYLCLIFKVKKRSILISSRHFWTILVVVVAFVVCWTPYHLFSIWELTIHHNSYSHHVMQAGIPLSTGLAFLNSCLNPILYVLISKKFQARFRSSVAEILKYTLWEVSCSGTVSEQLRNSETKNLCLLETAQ
T4 sequence (O00398 whole entry): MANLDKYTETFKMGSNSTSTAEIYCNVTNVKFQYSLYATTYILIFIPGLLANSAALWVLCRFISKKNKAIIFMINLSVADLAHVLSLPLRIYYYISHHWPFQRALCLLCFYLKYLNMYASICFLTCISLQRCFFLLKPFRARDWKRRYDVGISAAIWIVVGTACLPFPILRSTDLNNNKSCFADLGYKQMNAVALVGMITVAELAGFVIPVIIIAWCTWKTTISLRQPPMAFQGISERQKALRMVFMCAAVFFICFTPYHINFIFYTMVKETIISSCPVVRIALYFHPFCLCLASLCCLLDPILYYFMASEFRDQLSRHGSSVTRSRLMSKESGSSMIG

SMILES: CCOc1cccc2cc(C(C)NCC3(O)CCCCC3)oc12 (stereo not shown) [O4LE6]
- Fold of Basal (320 non-olfactory GPCRs [1]): 0.9495 and 0.9531 and 1.111 and 0.8261
- Fold of Basal (320 non-olfactory GPCRs [2]): 0.7465 and 0.7299 and 1.058 and 0.6886
- Fold of Basal (320 non-olfactory GPCRs [3]): 1.745 and 1.544 and 1.297 and 1.2172
- GPCRome agonism screen response (320 non-olfactory GPCRs [4]): 0.6744 and 0.6284 and 0.7052 and 0.972
